From US20250003952A1, “SENOLYTIC DRUG SCREENING METHOD AND SENOLYTIC DRUG” (KYOTO UNIVERSITY, priority 2021, published 2025)

Tests used:
[1] = tested on: IMR90 cells; assay: Senolysis / cell death of young and Ras-induced senescent IMR90 cells; format: cell-based, human
Source text: Ras gene with oncogenic mutation was introduced into young cells (within 1 month of continuous culture) of IMR90 cells by retroviral infection to acquire senescent cells. […] The control received only DMSO treatment. Representative images of cells observed under a microscope are shown (FIG. 11).
An oncogenic mutated Ras gene was introduced into young cells (within 1 month of continuous culture) of IMR90 cells by retroviral infection to acquire stress-induced senescent cells. The young cells and the senescent cells were both treated with different concentrations of the RSK kinase inhibitor BI-D1870 for 96 hours to evaluate cell death.
An oncogenic mutated Ras gene was introduced into young cells (within 1 month of continuous culture) of IMR90 cells by retroviral infection to acquire stress-induced senescent cells. The young cells and the senescent cells of IMR90 were both transfected with an RSK1 siRNA (two types of siRNA #1 (SEQ ID NO: 7) or #2 (SEQ ID NO: 8) having different target sequences) or a control to knock down RSK1. Representative images of cells observed under a microscope are shown (upper diagram in FIG. 20).
An oncogenic Ras was introduced into young cells (within 1 month of continuous culture) of IMR90 cells to induce senescent cells (OIS). The young cells and the senescent cells of IMR90 were transfected with two HIF-2α-specific siRNAs (SEQ ID NO: 9 and SEQ ID NO: 10) having different target sequences to knock down HIF-2α.
An oncogenic Ras was introduced into young cells (within 1 month of continuous culture) of IMR90 cells to induce senescent cells (OIS). The young cells and the senescent cells of IMR90 were transfected with a BIM-specific siRNA to knock down BIM.
An oncogenic Ras was introduced into young cells (within 1 month of continuous culture) of IMR90 cells to induce senescent cells (OIS). In the young cells and the senescent cells of IMR90, HIF-2α alone or both HIF-2α and BIM were knocked down by using their respective specific siRNAs (SEQ ID NO: 9, SEQ ID NO: 10), and cell death was confirmed (FIG. 28).
The latter information consists of 12,655 ChIP datasets from 903 antigens (transcription factors and epigenetic regulators).

[2] = tested on: aged C57BL/6 mice; assay: Nutlin 3b administration to aged mice for 2 months, RT-PCR of senescence and inflammation markers; format: in vivo, mouse; conditions: 90 weeks, 11.63 mg/kg intraperitoneal once a week for 2 months
Protocol: Specifically, 16 aged C57BL/6 mice at 90 weeks of age were provided. The mice were divided into two groups (control: 8 mice, agent group: 8 mice), and intraperitoneal injection administration once a week was continued for 2 months. […] One week after the end of the last administration, all mice were dissected, and RNA was extracted from each organ. Senescence markers and inflammation markers were evaluated by RT-PCR.

[3] = tested on: BIM gene; assay: BIM gene expression in Ras-induced senescent IMR90 cells; format: cell-based, human; conditions: senescent (OIS) IMR90 cells; 48 hours
Protocol: An oncogenic Ras was introduced into young cells (within 1 month of continuous culture) of IMR90 cells to induce senescent cells (OIS).
An oncogenic Ras was introduced into young cells (within 1 month of continuous culture) of IMR90 cells to induce senescent cells (OIS). The senescent cells were transfected with an HIF-2α-specific siRNA (SEQ ID NO: 9) to knock down HIF-2α. After that, the expression of the BIM gene, which is an apoptosis-inducing gene, was analyzed (FIG. 26).

[4] = tested on: Twenty-month-old C57BL/6 mice; assay: Nutlin 3b administration to aged mice for 3 months; format: in vivo, mouse
Source text: The vehicle group was given a solvent alone on the same schedule.

[5] = molecular target: T1, PGAM-Chk1 binding (Homo sapiens, UniProt O14757+P18669); assay: Nano-Bit PGAM-Chk1 binding in cancer cell line H1299; format: cell-based; conditions: H1299 cells; 40 μM for 12, 24, and 48 hours
T1 construct: expressed in transfected cells
T1 sequence (P18669 whole entry): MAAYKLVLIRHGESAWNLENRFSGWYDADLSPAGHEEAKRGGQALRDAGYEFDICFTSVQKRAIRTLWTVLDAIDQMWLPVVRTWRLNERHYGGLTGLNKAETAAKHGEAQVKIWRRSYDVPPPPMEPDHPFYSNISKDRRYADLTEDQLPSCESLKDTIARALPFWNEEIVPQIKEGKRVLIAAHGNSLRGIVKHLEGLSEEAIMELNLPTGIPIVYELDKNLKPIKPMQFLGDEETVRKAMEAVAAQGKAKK
T1 sequence (O14757 whole entry): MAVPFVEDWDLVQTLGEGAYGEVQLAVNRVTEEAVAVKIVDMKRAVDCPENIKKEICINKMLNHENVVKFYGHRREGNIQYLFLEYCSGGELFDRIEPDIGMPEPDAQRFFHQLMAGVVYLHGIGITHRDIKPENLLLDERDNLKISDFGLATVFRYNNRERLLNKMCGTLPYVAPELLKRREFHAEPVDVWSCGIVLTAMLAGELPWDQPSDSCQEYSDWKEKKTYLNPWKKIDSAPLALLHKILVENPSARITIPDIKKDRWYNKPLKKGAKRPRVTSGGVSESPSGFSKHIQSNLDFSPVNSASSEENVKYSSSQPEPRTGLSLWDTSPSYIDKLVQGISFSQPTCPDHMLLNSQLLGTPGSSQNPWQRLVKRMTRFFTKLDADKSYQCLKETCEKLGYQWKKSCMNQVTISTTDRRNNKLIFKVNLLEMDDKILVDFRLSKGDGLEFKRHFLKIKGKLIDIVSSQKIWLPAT
Source text: PGAM and Chk1 kinase genes tagged with Nano-Bit tags were introduced into the cancer cell line H1299 to prepare a cell line capable of stable expression. […] The treated cells were used to measure intracellular luciferase luminescence signals by Nano-Bit for each.

[6] = 11.62 mg/kg intraperitoneal once a week for 3 months

For `COc1ccc(C2=N[C@H](c3ccc(Cl)cc3)[C@H](c3ccc(Cl)cc3)N2C(=O)N2CCNC(=O)C2)c(OC(C)C)c1` [nutlin 3b], the “senolysis by nutlin 3b treatment in BIM knockdown cells” value ([1]; IMR90 cells transfected with BIM-specific siRNA, nutlin 3b 96 hours) was “rescued by BIM knockdown”, the “cell death observed under a microscope” value ([1]; young and Ras-induced senescent IMR90 cells, 40 μM for 72 hours) was “young cells are normal, but senescent cells selectively die” and the “senolytic effect (cell death)” value ([1]; young and senescent IMR90 cells, 96 hours, 20 or 40 μM) was “remarkable senolytic effect”. For the same compound, the “inflammatory markers (RT-PCR, organs)” value [2] was “reduced”, the “senescence markers (RT-PCR, organs)” value [2] was “reduced” and the “expression of the apoptosis-inducing gene BIM” value [3] was “increased”. For the same compound, the “lactate level (plasma)” value [4, 6] was “improved”, the “liver function marker plasma albumin level” value [4, 6] was “improved” and the “muscle strength (wire hang test)” value [4, 6] was “improved”. The “renal function marker plasma BUN” value [4, 6] was “improved”, the “renal function marker plasma creatinine” value [4, 6] was “improved” and the “degree of cellular senescence in adipose tissue (SA ß-Gal staining)” value ([4]; 11.62 mg/kg once a week for 3 months) was “improved”. For the same compound, the “p21-positive cells in the liver” value ([4]; histochemical analysis, 11.62 mg/kg once a week for 3 months) was “significantly decreased”, the “SASP factors (IL6, CXCL1, TNFα, and CCL5)” value ([4]; liver mRNA, 11.62 mg/kg once a week for 3 months) was “reductions” and the “F4/F80-positive cells (macrophage infiltration)” value ([4]; liver, 11.62 mg/kg once a week for 3 months) was “reduced”. The “luciferase luminescence signal by Nano-Bit (PGAM-Chk1 binding)” value [5] was “treatment time-dependent decrease”.
